# Tests used:
# [1] = target: T1, AMP-activated protein kinase (AMPK) alpha-1/beta-1/gamma-1 (Homo sapiens, UniProt P54619+Q13131+Q9Y478); test: Activation of full length human recombinant N-terminal GST-tagged AMPK alpha1/beta1/gamma1 expressed in baculovirus infected High Five cells using NH2-HMRSAMSGLHLVKRR CONH2 substrate after 60 mins by ADP-Glo kinase assay; parameters: species or system BTI-TN-5B1-4
# [2] = target: AMP-activated protein kinase (AMPK) alpha-1/beta-1/gamma-1 (Homo sapiens) (UniProt P54619+Q9Y478+Q13131); test: Activation of human recombinant AMPK alpha1/beta1/gamma1 expressed in African green monkey COS7 cells assessed as increase in biotinylated […] (1 to 120 residues) peptide phosphorylation at Ser-79 residue measured after 60 mins by Alphascreen assay relative to control; type: cell-based; details: COS-7
# [3] = target: T2, AMPK alpha1/beta2/gamma1 (Homo sapiens, UniProt O43741+P54619+Q13131); test: Activation of human recombinant AMPK alpha1/beta2/gamma1 expressed in African green monkey COS7 cells assessed as increase in biotinylated […] (1 to 120 residues) peptide phosphorylation at Ser-79 residue measured after 60 mins by Alphascreen assay; type: cell-based, COS-7
# [4] = target: AMPK alpha2/beta2/gamma3 (Homo sapiens) (UniProt P54646+O43741+Q9UGI9); test: Activation of human recombinant AMPK alpha2/beta2/gamma3 expressed in African green monkey COS7 cells assessed as increase in biotinylated […] (1 to 120 residues) peptide phosphorylation at Ser-79 residue measured after 60 mins by Alphascreen assay relative to control; type: cell-based; details: COS-7
# [5] = target: AMPK alpha2/beta2/gamma3 (Homo sapiens, UniProt O43741+P54646+Q9UGI9); test: Activation of human recombinant AMPK alpha2/beta2/gamma3 expressed in African green monkey COS7 cells assessed as increase in biotinylated […] (1 to 120 residues) peptide phosphorylation at Ser-79 residue measured after 60 mins by Alphascreen assay; type: cell-based, COS-7
# AMPK alpha2/beta2/gamma3, sequence (P54646 whole entry, the tested form may be a part): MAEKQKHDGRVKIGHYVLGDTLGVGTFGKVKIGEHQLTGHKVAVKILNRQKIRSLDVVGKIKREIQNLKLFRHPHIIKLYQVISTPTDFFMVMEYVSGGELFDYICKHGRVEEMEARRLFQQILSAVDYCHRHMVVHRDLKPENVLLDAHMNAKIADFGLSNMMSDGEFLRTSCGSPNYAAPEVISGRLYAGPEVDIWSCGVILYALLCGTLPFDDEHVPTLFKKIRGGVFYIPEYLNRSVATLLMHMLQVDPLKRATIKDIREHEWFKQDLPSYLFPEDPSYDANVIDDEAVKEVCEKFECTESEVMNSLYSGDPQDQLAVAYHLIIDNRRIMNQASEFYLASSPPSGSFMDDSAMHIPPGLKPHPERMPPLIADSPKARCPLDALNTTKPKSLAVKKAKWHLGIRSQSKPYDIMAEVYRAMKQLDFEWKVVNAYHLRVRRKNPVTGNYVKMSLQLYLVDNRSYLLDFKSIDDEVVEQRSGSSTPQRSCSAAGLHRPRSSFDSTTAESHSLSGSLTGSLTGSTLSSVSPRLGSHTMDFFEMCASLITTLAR
# AMPK alpha2/beta2/gamma3, sequence (O43741 whole entry, the tested form may be a part): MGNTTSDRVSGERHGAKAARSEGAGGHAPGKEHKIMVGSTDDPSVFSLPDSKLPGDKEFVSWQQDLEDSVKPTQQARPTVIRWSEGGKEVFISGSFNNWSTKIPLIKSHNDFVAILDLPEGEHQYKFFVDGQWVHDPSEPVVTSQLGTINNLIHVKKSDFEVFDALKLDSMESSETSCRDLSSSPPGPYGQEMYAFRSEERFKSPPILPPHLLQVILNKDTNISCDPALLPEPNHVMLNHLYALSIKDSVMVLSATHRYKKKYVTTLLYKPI
# AMPK alpha2/beta2/gamma3, sequence (Q9UGI9 whole entry, the tested form may be a part): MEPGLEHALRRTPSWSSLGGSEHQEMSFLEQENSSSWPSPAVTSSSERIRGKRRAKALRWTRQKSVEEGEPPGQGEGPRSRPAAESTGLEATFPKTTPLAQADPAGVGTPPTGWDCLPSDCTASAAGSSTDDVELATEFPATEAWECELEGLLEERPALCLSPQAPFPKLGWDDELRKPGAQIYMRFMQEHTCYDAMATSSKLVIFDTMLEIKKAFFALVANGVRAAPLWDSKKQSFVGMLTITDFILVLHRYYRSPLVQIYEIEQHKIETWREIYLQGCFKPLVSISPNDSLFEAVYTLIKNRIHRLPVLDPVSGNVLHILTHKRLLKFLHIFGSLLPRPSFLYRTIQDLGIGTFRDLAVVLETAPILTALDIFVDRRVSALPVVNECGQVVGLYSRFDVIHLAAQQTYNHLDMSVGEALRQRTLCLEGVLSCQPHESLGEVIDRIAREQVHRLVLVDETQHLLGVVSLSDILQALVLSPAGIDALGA
# [6] = target: T1, AMP-activated protein kinase (AMPK) alpha-1/beta-1/gamma-1; test: Activation of human recombinant AMPK alpha1/beta1/gamma1 expressed in African green monkey COS7 cells assessed as increase in biotinylated […] (1 to 120 residues) peptide phosphorylation at Ser-79 residue measured after 60 mins by Alphascreen assay; type: cell-based, COS-7
# [7] = target: AMPK alpha2/beta1/gamma1 (Homo sapiens, UniProt P54619+P54646+Q9Y478); test: Activation of human recombinant AMPK alpha2/beta1/gamma1 expressed in African green monkey COS7 cells assessed as increase in biotinylated […] (1 to 120 residues) peptide phosphorylation at Ser-79 residue measured after 60 mins by Alphascreen assay; type: cell-based, COS-7
# AMPK alpha2/beta1/gamma1, sequence (P54646 whole entry, the tested form may be a part): as the sequence (P54646 whole entry, the tested form may be a part) above
# AMPK alpha2/beta1/gamma1, sequence (P54619 whole entry, the tested form may be a part): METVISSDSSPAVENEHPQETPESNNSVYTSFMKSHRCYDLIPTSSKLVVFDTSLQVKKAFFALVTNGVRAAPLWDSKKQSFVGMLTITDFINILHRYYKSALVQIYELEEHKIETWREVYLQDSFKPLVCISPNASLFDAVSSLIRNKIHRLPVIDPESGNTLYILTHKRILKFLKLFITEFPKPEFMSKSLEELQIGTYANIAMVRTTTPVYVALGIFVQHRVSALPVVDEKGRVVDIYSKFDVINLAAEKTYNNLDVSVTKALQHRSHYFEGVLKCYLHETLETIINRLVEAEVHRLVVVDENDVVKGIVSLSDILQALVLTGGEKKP
# AMPK alpha2/beta1/gamma1, sequence (Q9Y478 whole entry, the tested form may be a part): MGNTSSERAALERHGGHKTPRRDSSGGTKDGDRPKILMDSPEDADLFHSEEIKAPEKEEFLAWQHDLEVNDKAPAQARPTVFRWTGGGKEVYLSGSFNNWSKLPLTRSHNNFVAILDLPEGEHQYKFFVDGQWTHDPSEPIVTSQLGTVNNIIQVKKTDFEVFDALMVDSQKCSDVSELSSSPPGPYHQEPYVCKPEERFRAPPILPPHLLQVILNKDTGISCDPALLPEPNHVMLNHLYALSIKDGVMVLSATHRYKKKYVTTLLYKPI
# [8] = target: T2, AMPK alpha1/beta2/gamma1; test: Activation of human recombinant AMPK alpha1/beta2/gamma1 expressed in African green monkey COS7 cells assessed as increase in biotinylated […] (1 to 120 residues) peptide phosphorylation at Ser-79 residue measured after 60 mins by Alphascreen assay relative to control; type: cell-based; details: COS-7
# [9] = target: AMPK alpha2/beta2/gamma1 (Homo sapiens, UniProt O43741+P54619+P54646); test: Activation of human recombinant AMPK alpha2/beta2/gamma1 expressed in African green monkey COS7 cells assessed as increase in biotinylated […] (1 to 120 residues) peptide phosphorylation at Ser-79 residue measured after 60 mins by Alphascreen assay; type: cell-based, COS-7
# AMPK alpha2/beta2/gamma1, sequence (P54646 whole entry, the tested form may be a part): as the sequence (P54646 whole entry, the tested form may be a part) above
# AMPK alpha2/beta2/gamma1, sequence (O43741 whole entry, the tested form may be a part): as the sequence (O43741 whole entry, the tested form may be a part) above
# AMPK alpha2/beta2/gamma1, sequence (P54619 whole entry, the tested form may be a part): as the sequence (P54619 whole entry, the tested form may be a part) above
# [10] = target: AMPK alpha2/beta2/gamma1 (Homo sapiens) (UniProt P54646+O43741+P54619); test: Activation of human recombinant AMPK alpha2/beta2/gamma1 expressed in African green monkey COS7 cells assessed as increase in biotinylated […] (1 to 120 residues) peptide phosphorylation at Ser-79 residue measured after 60 mins by Alphascreen assay relative to control; type: cell-based; details: COS-7
# [11] = target: AMPK alpha2/beta1/gamma1 (Homo sapiens) (UniProt P54646+P54619+Q9Y478); test: Activation of human recombinant AMPK alpha2/beta1/gamma1 expressed in African green monkey COS7 cells assessed as increase in biotinylated […] (1 to 120 residues) peptide phosphorylation at Ser-79 residue measured after 60 mins by Alphascreen assay relative to control; type: cell-based; details: COS-7
# T1 sequence (P54619 whole entry, the tested form may be a part): as above
# T1 sequence (Q9Y478 whole entry, the tested form may be a part): as the sequence (Q9Y478 whole entry, the tested form may be a part) above
# T1 sequence (Q13131 whole entry, the tested form may be a part): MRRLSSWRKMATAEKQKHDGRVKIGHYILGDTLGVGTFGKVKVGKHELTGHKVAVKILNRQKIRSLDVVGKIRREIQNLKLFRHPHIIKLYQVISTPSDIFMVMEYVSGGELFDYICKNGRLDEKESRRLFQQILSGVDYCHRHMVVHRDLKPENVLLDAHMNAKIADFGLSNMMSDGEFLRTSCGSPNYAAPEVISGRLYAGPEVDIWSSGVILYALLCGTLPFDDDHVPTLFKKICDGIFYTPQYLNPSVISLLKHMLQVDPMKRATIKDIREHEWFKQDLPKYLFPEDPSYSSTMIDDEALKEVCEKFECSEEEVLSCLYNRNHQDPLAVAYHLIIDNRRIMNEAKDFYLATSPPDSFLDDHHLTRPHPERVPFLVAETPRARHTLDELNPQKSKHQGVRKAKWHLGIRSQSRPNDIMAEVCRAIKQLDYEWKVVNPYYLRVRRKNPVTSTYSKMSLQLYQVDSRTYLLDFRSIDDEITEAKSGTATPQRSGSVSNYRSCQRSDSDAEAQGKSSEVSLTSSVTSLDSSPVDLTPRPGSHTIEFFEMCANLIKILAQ
EC50 [1],fold change (FC) [2],EC50 [3],fold change (FC) [4],EC50 [5],EC50 [6],EC50 [7],fold change (FC) [8],EC50 [9],fold change (FC) [10],fold change (FC) [11],Compound
3 nM,,,,,,,,,,,CS(=O)(=O)Nc1ccc(-c2ccc(-c3nc4nc(O[C@@H]5CO[C@H]6[C@@H]5OC[C@H]6O)[nH]c4cc3Cl)cc2)c(F)c1
,27,4 nM,16,4 nM,11 nM,27 nM,10,2 nM,13,13,Oc1cccc(O)c1-c1ccc(-c2cc3nc(O[C@@H]4CO[C@H]5[C@@H]4OC[C@H]5O)[nH]c3cc2Cl)cc1

# Reference: ChEMBL document CHEMBL3856285, “Recent progress in the identification of adenosine monophosphate-activated protein kinase (AMPK) activators” (Bioorg Med Chem Lett, 2016)
